Biological target: T1, SSTR3 (Homo sapiens, UniProt P32745)
T1 construct: purchased Promega (in-house HiBiT-GPCR construct library, NanoBRET)
Assay: NanoBRET screen HiBiT-SSTR3 in HEK293
Assay type: binding
Method: Each tracer candidate was screened across the entire library of HiBiT-GPCR constructs using NanoBRET as the detection modality. As depicted in Figure 4A, the specificity of interactions was evaluated through decrease in BRET due to competitive displacement of a bound tracer by excess parental compound. Each tracer was analyzed for binding to each HiBiT-GPCR fusion in the absence and in the presence of competing parental compound. Briefly, HEK293 cells were transfected with HiBiT-GPCR constructs diluted into promoterless DNA to reduce expression and maximize translocation to the cell surface. Each tracer candidate was then screened at concentrations of 1 μM and 0.1 μM across cells expressing these fusions. Cells were treated for 1.5 h with tracer either alone or in the presence of 20 μM competing parental compound (i.e., control). BRET was measured upon addition of purified LgBiT and subsequent complementation with HiBiT genetically fused to a GPCR. The specificity of interactions was assessed through a decrease in BRET signal due to competitive displacement of the bound tracer. To further gauge the robustness of these interactions, the fold response over the control (i.e., BRETtracer/BRETcontrol) was calculated. We chose a 1.5-fold response, which translates to ≥7-fold signal over noise as the minimal threshold required to score an interaction as positive. […]. Below we highlight the screening results obtained for our exemplary fluorescent tracers based on Clozapine, Amitriptyline and AZD1283.
HiBiT-GPCR DNA constructs were diluted in 10 mM Tris pH 8 to a final concentration of 0.01 μg/μL, arrayed in 96-well plates and stored at −20 °C. For transfection, HEK293 cells were suspended in Opti-MEM (without phenol red) supplemented with 2% fetal bovine serum (Seradigm) and 100 units/mL penicillin–streptomycin (Gibco) at a final concentration of 220,000 cells/mL and dispensed into white 96-well plates at 90 μL/well. Subsequent transfections and screens were carried using an Agilent Bravo Automated Liquid Handling Platform. First, the 96-well HiBiT DNA arrays were diluted 25-fold in Opti-MEM (without serum or phenol red) to a final concentration of 0.0004 μg/μL and 20 μL of the diluted DNAs were transferred into new 96-well plates. Next, promoterless carrier DNA (1 μg/μL) was diluted 25-fold (0.04 μg/μL) and then dispensed into the diluted arrays at 20 μL/well. Following brief mixing, Viafect transfection reagent (Promega) diluted 16-fold into Opti-MEM was dispensed into the plates at 40 μL/well. After mixing by pipetting, plates were incubated for 10 min on the pipetting station deck. The DNA-transfection reagent complexes were then added to plates containing cells. To facilitate the screen, 10 μL of DNA-transfection reagent complexes were added in duplicates to the top 4 and bottom 4 rows, resulting in two identical 48-well arrays per plate. Plates with transfected cells were incubated for 18–20 h at 37 °C/5% CO2. A screen of each tracer across the entire library using two different concentrations requires duplicate plates of transfected cells. Depending on the number of tracers being screened, transfections can be scaled up using the same ratios. The next day, for each tracer, four 20× screening solutions in tracer dilution buffer (Promega) were prepared: two duplicates at final concentration of 20 μM and two duplicates at a final concentration of 2 μM. A competing unmodified compound was added to one of each duplicate at a final concentration of 400 μM. The four resulting solutions were diluted 4-fold in Opti-MEM without serum or phenol red to generate 5× solutions (5 µM and 0.5 µM tracer +/− 100 μM competing compound). To screen the library, a BioTek MultiFlo FX liquid dispenser was used to dispense 22.5 µL of tracer solution to the top 4 rows and 22.5 µL tracer + competing compound solution to the 4 bottom rows. Plates were briefly mixed on an orbital shaker and incubated for 1.5 h at room temperature. […]

T1 sequence (P32745 whole entry): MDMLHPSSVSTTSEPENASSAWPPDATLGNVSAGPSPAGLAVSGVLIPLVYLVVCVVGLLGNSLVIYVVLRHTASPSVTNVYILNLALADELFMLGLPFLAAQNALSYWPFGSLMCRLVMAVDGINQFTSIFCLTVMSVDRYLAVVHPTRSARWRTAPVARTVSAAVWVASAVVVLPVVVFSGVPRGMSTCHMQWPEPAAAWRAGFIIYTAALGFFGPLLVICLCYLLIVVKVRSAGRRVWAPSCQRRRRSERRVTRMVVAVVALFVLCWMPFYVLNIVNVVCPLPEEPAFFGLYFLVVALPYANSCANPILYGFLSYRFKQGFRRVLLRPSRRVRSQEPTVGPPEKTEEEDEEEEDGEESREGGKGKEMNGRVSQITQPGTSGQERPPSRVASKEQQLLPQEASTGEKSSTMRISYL

Structure (SMILES) | NanoBRET Fold Response (SSTR3, tracer 0.1μM) | NanoBRET Fold Response (SSTR3, tracer 1μM) | also measured
Cc1nc2n(c(=O)c1CCN1CCC(c3noc4cc(F)ccc34)CC1)CCCC2OC(=O)NCCOCCOCCOCCOCCNC(=O)CCc1ccc2n1[B-](F)(F)[N+]1=C(c3ccc[nH]3)C=CC1=C2 (stereo not shown) [Risperidone-2-NB590] | 0.92 | 0.99 | 
CCOC(=O)c1cc(C#N)c(N2CCC(C(=O)NS(=O)(=O)Cc3ccccc3/C=C/C(=O)NCCNC(=O)CCc3ccc4n3[B-](F)(F)[N+]3=C(c5ccc[nH]5)C=CC3=C4)CC2)nc1C [AZD1283-1-NB590] |  |  | NanoBRET Fold Response (SSTR3, 0.1μM): 1.07; NanoBRET Fold Response (SSTR3, 1μM): 1.13
Cc1cc2c(s1)Nc1ccccc1N=C2N1CCN(CCCNC(=O)CCOCCOCCOCCOCCNC(=O)CCc2ccc3n2[B-](F)(F)[N+]2=C(c4ccc[nH]4)C=CC2=C3)CC1 [Olanzapine-a-2-NB590] | 0.99 | 1.04 | 
COc1ccccc1N1CCN(CCCCN2C(=O)c3ccc(CNC(=O)CCOCCNC(=O)c4ccc(CNC(=O)CCc5ccc6n5[B-](F)(F)[N+]5=C(c7ccc[nH]7)C=CC5=C6)cc4)cc3C2=O)CC1 [NAN-190-3-NB590] | 1.07 | 0.93 | 
CC(C)N(CC[C@H](c1ccccc1)c1cc(CCNC(=O)CCOCCOCCOCCOCCNC(=O)CCc2ccc3n2[B-](F)(F)[N+]2=C(c4ccc[nH]4)C=CC2=C3)ccc1O)C(C)C [Tolterodine-2-NB590] | 1.08 | 1.17 | 
CN(C)CCC=C1c2ccccc2CCc2ccc(C(=O)NCCNC(=O)CCOCCOCCOCCOCCNC(=O)CCc3ccc4n3[B-](F)(F)[N+]3=C(c5ccc[nH]5)C=CC3=C4)cc21 [Amitriptyline-b-2-NB590] |  |  | NanoBRET Fold Response (tracer at 0.1μM): 0.95; NanoBRET Fold Response (tracer at 1μM): 0.99
O=C(CCOCCOCCOCCOCCNC(=O)CCc1ccc2n1[B-](F)(F)[N+]1=C(c3ccc[nH]3)C=CC1=C2)NCCCN1CCN(C2=Nc3ccccc3Oc3ccc(Cl)cc32)CC1 [Loxapine-a-2-NB590] | 1.01 | 1.25 | 
CN(C)CCC=C1c2ccccc2CCc2ccc(C(=O)NCCNC(=O)CCOCCOCCOCCOCCNC(=O)CCc3ccc4n3[B-](F)(F)[N+]3=C(c5ccc[nH]5)C=CC3=C4)cc21 [Amitriptyline-a-2-NB590] |  |  | NanoBRET Fold Response (tracer at 0.1μM): 1.05; NanoBRET Fold Response (tracer at 1μM): 1.05
O=C(CCc1ccc2n1[B-](F)(F)[N+]1=C(c3ccc[nH]3)C=CC1=C2)NCCOCCOCCNC(=O)OCCOCCN1CCN(C2=Nc3ccccc3Sc3ccccc32)CC1 [Quetiapine-a-2-NB590] | 0.96 | 0.74 | 
COc1ccccc1N1CCN(CCCCN2C(=O)c3ccc(CNC(=O)CCOCCOCCOCCOCCNC(=O)CCc4ccc5n4[B-](F)(F)[N+]4=C(c6ccc[nH]6)C=CC4=C5)cc3C2=O)CC1 [NAN-190-2-NB590] | 1.00 | 1.05 | 
CN1CCN(C2=Nc3cc(Cl)ccc3N(CC(=O)NCCOCCOCCOCCOCCNC(=O)CCc3ccc4n3[B-](F)(F)[N+]3=C(c5ccc[nH]5)C=CC3=C4)c3ccccc32)CC1 [Clozapine-c-2-NB590] |  |  | NanoBRET Fold Response (SSTR3, 0.1μM tracer): 0.95; NanoBRET Fold Response (SSTR3, 1μM tracer): 1.02
COc1ccc2[nH]c(-c3ccc(CNC(=O)CCOCCOCCOCCOCCNC(=O)CCc4ccc5n4[B-](F)(F)[N+]4=C(c6ccc[nH]6)C=CC4=C5)cc3)c(CCNC(C)=O)c2n1 [AzomelatoninICO9-2-NB590] |  |  | NanoBRET Fold Response (0.1μM tracer): 0.94; NanoBRET Fold Response (1μM tracer): 1.01
O=C(CCOCCOCCOCCOCCNC(=O)CCc1ccc2n1[B-](F)(F)[N+]1=C(c3ccc[nH]3)C=CC1=C2)NCCCN1CCN(C2=Nc3cc(Cl)ccc3Nc3ccccc32)CC1 [Clozapine-a-2-NB590] |  |  | NanoBRET Fold Response (SSTR3, 0.1μM tracer): 0.91; NanoBRET Fold Response (SSTR3, 1μM tracer): 1.05
CCCn1c(=O)c2[nH]c(-c3ccc(OCC(=O)NCCNC(=O)CCOCCNC(=O)c4ccc(CNC(=O)CCc5ccc6n5[B-](F)(F)[N+]5=C(c7ccc[nH]7)C=CC5=C6)cc4)cc3)nc2n(CCC)c1=O [XAC-3-NB590] | 0.99 | 0.98 | 
O=C(CCc1ccc2n1[B-](F)(F)[N+]1=C(c3ccc[nH]3)C=CC1=C2)NCc1ccc(C(=O)NCCOCCOCCNCC(O)COc2cccc3ccccc23)cc1 (stereo not shown) [Propranolol-3-NB590] |  |  | NanoBRET Fold Response (SSTR3, 0.1μM): 0.99; NanoBRET Fold Response (SSTR3, 1μM): 1.01
O=C(CCc1ccc2n1[B-](F)(F)[N+]1=C(c3ccc[nH]3)C=CC1=C2)NCc1ccc(C(=O)NCCOCCC(=O)N[C@@H]2CC[C@@]3(O)[C@H]4Cc5ccc(O)c6c5[C@@]3(CCN4CC3CC3)[C@H]2O6)cc1 [Naltrexone-3-NB590] | 0.97 | 1.01 | 
N#CN=C(NCCCOc1cccc(CN2CCCCC2)c1)NCCNC(=O)CCOCCOCCOCCOCCNC(=O)CCc1ccc2n1[B-](F)(F)[N+]1=C(c3ccc[nH]3)C=CC1=C2 [Aminopotentidine-2-NB590] | 1.03 | 0.99 | 
COc1ccc2c(n1)c(CCNC(C)=O)cn2CCNC(=O)CCc1ccc2n1[B-](F)(F)[N+]1=C(c3ccc[nH]3)C=CC1=C2 [Azamelatonin-1-NB590] |  |  | NanoBRET Fold Response (0.1μM tracer): 1.03; NanoBRET Fold Response (1μM tracer): 1.08
CC(C)N(CC[C@H](c1ccccc1)c1cc(CCNC(=O)c2ccc(CNC(=O)CCc3ccc4n3[B-](F)(F)[N+]3=C(c5ccc[nH]5)C=CC3=C4)cc2)ccc1O)C(C)C [Tolterodine-BZ-NB590] | 1.01 | 1.04 | 
CN1CCN(C2=Nc3cc(Cl)ccc3Nc3ccc(CNC(=O)CCOCCOCCOCCOCCNC(=O)CCc4ccc5n4[B-](F)(F)[N+]4=C(c6ccc[nH]6)C=CC4=C5)cc32)CC1 [Clozapine-b-2-NB590] |  |  | NanoBRET Fold Response (SSTR3, 0.1μM tracer): 0.99; NanoBRET Fold Response (SSTR3, 1μM tracer): 1.02

From paper PMC8151276, “An Integrated Approach toward NanoBRET Tracers for Analysis of GPCR Ligand Engagement” (Molecules, 2021)
